The subject of the experiment is human σ1 receptor and human μ-opioid receptor. Kind of experiment: μ and σ1 dual binding: human σ1 receptor radioligand assay ([3H](+)-pentazocine, transfected HEK-293 membranes) and human μ-opioid receptor radioligand assay ([3H]-DAMGO, transfected CHO-K1 membranes). Further details: key to μ and σ1 dual binding: +: Both Ki-μ and Ki-σ1>=500 nM; ++: One Ki<500 nM while the other Ki is >=500 nM; +++: Both Ki-μ and Ki-σ1<500 nM; ++++: Both Ki-μ and Ki-σ1<100 nM.

Molecules are shown by their SMILES. Read-outs that look alike come from different tables or passages of the source.

Turning to `Cn1nccc1C(c1ccccc1)N1CCN(CCc2ccncc2)CC1` (stereo not drawn) [Example 37, 1-((1-methyl-1H-pyrazol-5-yl)(phenyl)methyl)-4-(2-(pyridin-4-yl)ethyl)piperazine], the “μ and σ1 dual binding” value is given as “++”.
Take `Cn1nccc1C(c1ccc(F)cn1)N1CCN(CCc2ccccc2)CC1` (stereo not drawn) [Example 12, 1-((5-fluoropyridin-2-yl)(1-methyl-1H-pyrazol-5-yl)methyl)-4-phenethylpiperazine]: the Ki is below 500 nM.
Take `Cn1nccc1C(c1ccccn1)N1CCN(CCc2ccccc2)CC1` (stereo not drawn) [Example 4, 1-((1-methyl-1H-pyrazol-5-yl)(pyridin-2-yl)methyl)-4-phenethylpiperazine]: the “μ and σ1 dual binding” value was “++”.
`COc1ccccc1C(c1ccnn1C)N1CCN(CCc2ccccc2)CC1` (stereo not drawn) [Example 8, 1-((2-methoxyphenyl)(1-methyl-1H-pyrazol-5-yl)methyl)-4-phenethylpiperazine] displayed an inhibition constant Ki below 500 nM.
As to `Cn1nccc1C(c1ccccc1)N1CCN(CCc2ccc(F)cn2)CC1` (stereo not drawn) [Example 34, 1-(2-(5-fluoropyridin-2-yl)ethyl)-4-((1-methyl-1H-pyrazol-5-yl)(phenyl)methyl)piperazine], for the setting “one combined class for Ki-μ and Ki-σ1”, the Ki is at least 500 nM.
On to `Cn1nccc1C(c1cncc(F)c1)N1CCN(CCc2ccccc2)CC1` (stereo not drawn) [Example 13, 1-((5-fluoropyridin-3-yl)(1-methyl-1H-pyrazol-5-yl)methyl)-4-phenethylpiperazine], for which the “μ and σ1 dual binding” value is reported as “++”.
